Experimental data: patent US12629363B2, “Prophylaxis and treatment of angioedema” (PHARVARIS GMBH, priority 2020, dated 2026)
Where two headings read alike, the source gives them in different places.

Columns and labels:
[1] = molecular target: T1, human B2 receptor (Homo sapiens, UniProt P30411); assay: Antagonist potency in cells expressing human B2 receptor; type: cell-based
T1 sequence (P30411 1-391): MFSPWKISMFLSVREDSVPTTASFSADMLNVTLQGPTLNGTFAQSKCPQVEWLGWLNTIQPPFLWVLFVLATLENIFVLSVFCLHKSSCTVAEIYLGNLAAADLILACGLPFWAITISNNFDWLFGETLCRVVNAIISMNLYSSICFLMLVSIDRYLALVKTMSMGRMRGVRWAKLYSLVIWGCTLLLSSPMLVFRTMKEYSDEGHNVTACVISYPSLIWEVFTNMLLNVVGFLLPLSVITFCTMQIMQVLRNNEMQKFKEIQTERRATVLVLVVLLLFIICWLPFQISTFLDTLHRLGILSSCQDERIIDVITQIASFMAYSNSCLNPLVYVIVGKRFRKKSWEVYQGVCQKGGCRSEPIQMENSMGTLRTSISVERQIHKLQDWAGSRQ
Excerpt: (§1) The bradykinin B2 receptor is well known for its species selective pharmacology (Paquet et al., Br. J. Pharmacol. (126), 1083-1090, 1999 (DOI: 10.1038/sj.bjp.0702403); Burgess et al., Br. J. Pharmacol. (129), 77-86, 2000 (DOI: 10.1038/sj.bjp.0703012)). […] Pharmacol. 11:916; DOI: 10.3389/fphar.2020.00916.

[2] = molecular target: T2, cynomolgus monkey B2 receptor (Macaca fascicularis, UniProt A0A7N9CWN6); assay: Antagonist potency in cells expressing cynomolgus monkey B2 receptor; type: cell-based; settings: read-out: Kb value to antagonize BK activation
T2 sequence (A0A7N9CWN6 1-391): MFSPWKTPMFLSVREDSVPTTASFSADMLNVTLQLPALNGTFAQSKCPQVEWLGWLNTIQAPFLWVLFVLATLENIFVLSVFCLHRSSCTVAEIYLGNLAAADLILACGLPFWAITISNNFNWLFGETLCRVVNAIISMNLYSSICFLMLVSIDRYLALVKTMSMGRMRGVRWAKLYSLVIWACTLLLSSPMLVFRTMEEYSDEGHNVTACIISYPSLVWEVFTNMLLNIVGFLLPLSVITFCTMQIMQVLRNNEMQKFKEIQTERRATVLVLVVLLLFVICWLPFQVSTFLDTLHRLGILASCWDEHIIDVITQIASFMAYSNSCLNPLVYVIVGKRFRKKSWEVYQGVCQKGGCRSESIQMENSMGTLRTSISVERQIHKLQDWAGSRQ
Excerpt: as §1

[3] = molecular target: T3, mouse B2 receptor (Mus musculus, UniProt P32299); assay: Antagonist potency in cells expressing mouse B2 receptor; type: cell-based; settings: compared with human B2 receptor
T3 construct: expressed in transfected cells
T3 sequence (P32299 1-392): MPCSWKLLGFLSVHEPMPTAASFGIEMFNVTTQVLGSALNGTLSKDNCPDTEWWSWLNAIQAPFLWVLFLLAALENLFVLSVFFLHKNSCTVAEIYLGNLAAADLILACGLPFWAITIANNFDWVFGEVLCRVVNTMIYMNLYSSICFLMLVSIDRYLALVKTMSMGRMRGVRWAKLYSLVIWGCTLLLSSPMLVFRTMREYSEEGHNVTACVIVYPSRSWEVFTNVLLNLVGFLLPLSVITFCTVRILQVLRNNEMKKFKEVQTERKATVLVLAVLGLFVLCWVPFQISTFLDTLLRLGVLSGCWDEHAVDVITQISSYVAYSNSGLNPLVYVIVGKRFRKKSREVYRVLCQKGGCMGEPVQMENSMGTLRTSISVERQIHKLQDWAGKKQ
Excerpt: as §1

[4] = test system: dog B2 receptor; assay: Antagonist potency in cells expressing dog B2 receptor; type: cell-based; settings: compared with human B2 receptor
Excerpt: as §1

[5] = molecular target: T4, BK B2 receptor (Homo sapiens, UniProt P30411); assay: Bradykinin challenge study, PK/PD (Example 3); type: in vivo; settings: for Time plasma level above EC85 at a 75% confidence level / Time plasma level above EC85 at a 75% confidence level, DBP / Time plasma level above EC85 at a 75% confidence level, MAP: modeling and simulation
T4 sequence (P30411 1-391): T1 sequence (P30411 1-391)
Method: The compound (12 and 22 mg) was administered orally (p.o.) to 16 healthy volunteers. BK was injected intravenously prior to oral administration of the compound, i.e. BK predosing challenge, and at 1, 4, 8, 12 and 24 hours after oral administration (dosing) of the 12 and 22 mg single dose, respectively. BK injections were administered to induce cardiovascular responses in the volunteers. The cardiovascular responses were monitored, and blood samples were drawn over 24 hours for PK assessment. The PD outcome variables were measured from 5 min before until 5 min after each BK bolus. A % inhibition-of-the-baseline average-to-peak effect was calculated and used as the PD outcome.
Immediately after BK injection a short-lived change in blood pressure, heart rate and cardiac output can be recorded.
PK was analyzed using a two-compartment body model with first-order oral absorption and a lag time; results are shown in Table 4. For the PK/PD model a simple Emax-model with a direct link was utilized. The PK/PD model was used to simulate PK profiles (N=1000) and calculate probability of durations of effect as well as to visualize effect-time profiles; see FIGS. 4 and 5.

[6] = Population 2-compartment PK model with oral absorption (BK challenge study); type: in vivo, human; settings: population PK model parameter estimate (CV %)
Method: A PK/PD analysis using the same approach as in the icatibant evaluation was conducted. […] PK was analyzed using a two-compartment body model with first-order oral absorption and a lag time; results are shown in Table 4. For the PK/PD model a simple Emax-model with a direct link was utilized. The PK/PD model was used to simulate PK profiles (N=1000) and calculate probability of durations of effect as well as to visualize effect-time profiles; see FIGS. 4 and 5.

[7] = Plasma protein binding; type: in vitro ADME; settings: human
[8] = molecular target: T5, endogenous human B2 receptors (Homo sapiens, UniProt P30411); assay: Antagonist potency at endogenous human B2 receptors
T5 sequence (P30411 1-391): T1 sequence (P30411 1-391)

[9] = Drug-drug interaction trial with itraconazole, safety and tolerability (Example 5); type: in vivo, human; settings: single 12 mg oral doses on Day 1 and Day 7 (with itraconazole)
Excerpt: Thirteen healthy subjects were enrolled and completed the study.

[10] = clinical; settings: human, in vivo, po, 12 mg
Method: On Days 4 to 8, subjects received once daily oral doses of 200 mg itraconazole one hour before start of a standard meal.
Trough plasma concentrations of itraconazole were determined by taking predose plasma samples on Days 4-7, to document exposure to itraconazole.

[11] = plasma concentration, PD in BK challenge

[2H][C@@](C)(NC(=O)COC(F)F)c1cc(F)cc(Cl)c1COc1cccc2c(-c3ncnn3C)cc(C)nc12 [compound of formula (I)]
times more potent at human B2 receptor than icatibant [1]: about 20 times
intrinsic agonist activity ([1]; B2 receptor): devoid of intrinsic agonist activity
Kb ([1]; human B2 receptor, read-out: Kb value to antagonize BK activation): 0.15 nM
antagonist potency at recombinant human B2 receptors ([1]; recombinant): 0.15 nM
Kb [2]: 1.42 nM
fold less potent towards the mouse B2 receptor [3]: more than 3000 fold
fold less potent towards the dog B2 receptor [4]: 18,000 fold
time stayed above EC85 ([5]; 12 mg oral dose): 7 h
Time plasma level above EC85 at a 75% confidence level ([5]; 12 mg p.o.): 6.5 h
Time plasma level above EC85 at a 75% confidence level, DBP ([5]; 12 mg p.o.): 7.5 h
Time plasma level above EC85 at a 75% confidence level, MAP ([5]; 12 mg p.o.): 7 h
duration of effect relative to the 12 mg dose ([5]; 22 mg oral dose): approximately twice as long
Time plasma level above EC85 at a 75% confidence level ([5]; 22 mg p.o.): 9.5 h
Time plasma level above EC85 at a 75% confidence level, DBP ([5]; 22 mg p.o.): 10 h
Time plasma level above EC85 at a 75% confidence level, MAP ([5]; 22 mg p.o.): 10 h
potency relative to icatibant based on plasma concentrations ([5]; BK challenge EC50/EC85): approximately four-fold more potent than icatibant
EC50 ([5]; corrected for plasma protein binding 96.2%, read-out: free plasma concentration associated with EC50 of 2.4 ng/ml): 0.17 nM
intrinsic PD potency at the K B2 receptor, fold higher than icatibant ([5]; in vivo): about 25 fold
Estimated EC85, Cardiac output [5, 11]: 0.00952 µg/mL
Estimated EC85, Composite average [5, 11]: 0.0138 µg/mL
Estimated EC85, Diastolic blood pressure [5, 11]: 0.01326 µg/mL
Estimated EC85, Heart rate [5, 11]: 0.0187 µg/mL
EC50 ([5]; plasma concentration, PD in BK challenge, read-out: Estimated EC50, Cardiac output (converted)): 3.14 nM
EC50 ([5]; plasma concentration, PD in BK challenge, read-out: Estimated EC50, Composite average (converted)): 4.49 nM
EC50 ([5]; plasma concentration, PD in BK challenge, read-out: Estimated EC50, Diastolic blood pressure (converted)): 4.37 nM
EC50 ([5]; plasma concentration, PD in BK challenge, read-out: Estimated EC50, Heart rate (converted)): 6.17 nM
CL/F apparent clearance [6]: 34.5 (5.9%) L/h
Ka first order absorption rate constant [6]: 7.97 (25.1%) 1/h
Q/F apparent inter-compartmental clearance [6]: 10.7 (15.8%) L/h
Tlag lag time [6]: 0.181 (9.9%) h
V2/F apparent volume for the central compartment [6]: 101 (4.5%) L
V3/F apparent volume for the peripheral compartment [6]: 35.9 (10.7%) L
fraction unbound [7]: 0.038
antagonist potency at endogenous human B2 receptors [8]: 0.35 nM
tolerability [9]: well tolerated with no related adverse events reported
Tmax [10]: 0.5 to 1 h
half-life [10]: 4.31 h
